Experimental data reported in US10836763B2, “5 to 7 membered heterocyclic amides as JAK inhibitors” (priority 2018, dated 2020).
Read-outs that look alike come from different tables or passages of the source.

Columns and labels:
[1] = biological target: JAK1 (Homo sapiens (Human), UniProt P23458); assay: Biochemical JAK kinase assay (LanthaScreen), JAK1
Experimental: (§1) Assay 1: Biochemical JAK Kinase Assays
(§2) A panel of four LanthaScreen JAK biochemical assays (JAK1, 2, 3 and Tyk2) were carried in a common kinase reaction buffer (50 mM HEPES, pH 7.5, 0.01% Brij-35, 10 mM MgCl2, and 1 mM EGTA). Recombinant GST-tagged JAK enzymes and a GFP-tagged STAT1 peptide substrate were obtained from Life Technologies.
(§3) Serially diluted compounds were pre-incubated with each of the four JAK enzymes and the substrate in white 384-well microplates (Corning) at ambient temperature for 1 h. ATP was subsequently added to initiate the kinase reactions in 10 μL total volume, with 1% DMSO. […] Kinase reactions were allowed to proceed for 1 hour at ambient temperature before a 10 μL preparation of EDTA (10 mM final concentration) and Tb-anti-pSTAT1 (pTyr701) antibody (Life Technologies, 2 nM final concentration) in TR-FRET dilution buffer (Life Technologies) was added. The plates were allowed to incubate at ambient temperature for 1 h before being read on the EnVision reader (Perkin Elmer). Emission ratio signals (520 nm/495 nm) were recorded and utilized to calculate the percent inhibition values based on DMSO and background controls.
(§4) For dose-response analysis, percent inhibition data were plotted vs. compound concentrations, and IC50 values were determined from a 4-parameter robust fit model with the Prism software (GraphPad Software). Results were expressed as pIC50 (negative logarithm of IC50) and subsequently converted to pKi (negative logarithm of dissociation constant, Ki) using the Cheng-Prusoff equation.

[2] = biological target: Tyk2 (Homo sapiens (Human), UniProt P29597); assay: Biochemical JAK kinase assay (LanthaScreen), Tyk2
Chain of Tyk2 (P29597 whole entry): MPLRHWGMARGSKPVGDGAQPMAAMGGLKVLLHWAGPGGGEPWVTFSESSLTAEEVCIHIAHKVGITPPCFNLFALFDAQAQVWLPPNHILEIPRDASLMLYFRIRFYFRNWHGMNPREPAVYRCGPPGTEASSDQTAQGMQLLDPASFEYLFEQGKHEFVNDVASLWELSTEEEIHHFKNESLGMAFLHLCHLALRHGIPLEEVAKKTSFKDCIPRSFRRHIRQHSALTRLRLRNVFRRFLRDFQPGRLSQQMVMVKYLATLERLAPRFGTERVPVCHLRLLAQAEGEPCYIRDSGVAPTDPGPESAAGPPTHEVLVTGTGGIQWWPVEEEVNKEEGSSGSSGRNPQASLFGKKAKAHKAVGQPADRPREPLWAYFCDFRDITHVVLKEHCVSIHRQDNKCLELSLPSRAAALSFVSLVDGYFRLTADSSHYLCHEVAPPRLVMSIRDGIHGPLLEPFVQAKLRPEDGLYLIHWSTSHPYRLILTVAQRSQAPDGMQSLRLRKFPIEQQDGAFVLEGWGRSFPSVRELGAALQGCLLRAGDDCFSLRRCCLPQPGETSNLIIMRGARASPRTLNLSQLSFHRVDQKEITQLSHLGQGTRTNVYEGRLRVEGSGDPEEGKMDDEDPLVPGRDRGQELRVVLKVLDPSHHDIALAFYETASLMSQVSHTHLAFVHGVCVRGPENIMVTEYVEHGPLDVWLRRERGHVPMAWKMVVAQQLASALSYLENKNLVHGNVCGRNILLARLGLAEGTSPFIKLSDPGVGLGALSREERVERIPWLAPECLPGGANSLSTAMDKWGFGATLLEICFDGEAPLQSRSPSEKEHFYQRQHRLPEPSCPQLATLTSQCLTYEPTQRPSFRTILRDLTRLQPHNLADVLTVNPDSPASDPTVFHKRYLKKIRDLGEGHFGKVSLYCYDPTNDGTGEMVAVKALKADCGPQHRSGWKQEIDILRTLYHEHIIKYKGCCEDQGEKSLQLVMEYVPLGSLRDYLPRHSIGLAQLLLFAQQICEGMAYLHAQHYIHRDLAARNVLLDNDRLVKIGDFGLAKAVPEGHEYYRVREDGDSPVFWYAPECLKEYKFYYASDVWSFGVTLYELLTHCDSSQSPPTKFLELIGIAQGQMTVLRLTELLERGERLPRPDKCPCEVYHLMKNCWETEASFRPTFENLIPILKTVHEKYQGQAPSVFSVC
Experimental: as §1, §2, §3, §4

[3] = test system: IL-13 induced pSTAT6 in lung tissue; assay: Murine model of IL-13 induced pSTAT6 induction in lung tissue; type: in vivo, mouse; settings: Balb/c mice, 1 mg/mL, 50 μL oral aspiration; IL-13 challenge 4 hours after compound; lung homogenate
Experimental: (§5) Assay 3: Murine (Mouse) Model of IL-13 Induced pSTAT6 Induction in Lung Tissue
IL-13 binds to cell surface receptors activating members of the Janus family of kinases (JAK) which then phosphorylate STAT6 and subsequently activates further transcription pathways. In the described model, a dose of IL-13 was delivered locally into the lungs of mice to induce the phosphorylation of STAT6 (pSTAT6) which is then measured as the endpoint.
Activity in the model is evidenced by a decrease in the level of pSTAT6 present in the lungs of treated animals at 5 hours compared to the vehicle treated, IL-13 challenged control animals. The difference between the control animals which were vehicle-treated, IL-13 challenged and the control animals which were vehicle-treated, vehicle challenged dictated the 0% and 100% inhibitory effect, respectively, in any given experiment.

[4] = Lung and plasma drug concentration in the murine IL-13 pSTAT6 model; type: in vivo; settings: mouse, other: oral aspiration, 50 µg/mouse; for Kp at 5 h: Balb/c, lung ng/g to plasma ng/mL at 5 hours, mice, oral aspiration, read-out: Lung to Plasma ratio at 5 hr; for concentration at 5 h: Balb/c mice, 1 mg/mL, 50 μL oral aspiration, 5 hr post dose
Experimental: as §5
Adult Balb/c mice from Harlan were used in the assay. […] Animals were placed in lateral recumbency post dose and monitored for full recovery from anesthesia before being returned to their home cage. Four hours later, animals were once again briefly anesthetized and challenged with either vehicle or IL-13 (0.03 μg total dose delivered, 50 μL total volume) via oral aspiration before being monitored for recovery from anesthesia and returned to their home cage. One hour after vehicle or IL-13 administration, whole blood and lungs were collected for both pSTAT6 detection in lung homogenates using a Perkin Elmer AlphaLISA® SureFire® Ultra™ HV p-STAT6 (Tyr641) assay kit and for total drug concentration analysis in both lung and plasma. Blood samples were centrifuged (Eppendorf centrifuge, 5804R) for 4 minutes at approximately 12,000 rpm at 4° C. to collect plasma. […] Plasma and lung levels of test compound were determined by LC-MS analysis against analytical standards constructed into a standard curve in the test matrix. A lung to plasma ratio was determined as the ratio of the lung concentration in ng/g to the plasma concentration in ng/mL at 5 hours.

[5] = Lung S9 metabolism; type: in vitro ADME, human; settings: for Compound Remaining at 60 min (%) / microsomal CLint at 1 µM: human lung S9, 1 μM compound, 1 mg/mL S9 protein, NADPH and PAPS; for microsomal CLint at 1 µM: lung S9 fraction, pH 7.4, read-out: Clearance; for Sulfate Appearance: qualitative, O-sulfate metabolite peak in human lung S9
Experimental: Assay 5: Lung S9 Metabolism […] Lung S9 fractions from human (lot 1410245) were purchased from XenoTech LLC (Lenexa, Kans.). NADPH (Sigma Aldrich, N1630) and 3-phosphoadenosine 5-phosphosulfate (PAPS) (Sigma Aldrich, A1651) were purchased from Sigma Aldrich (St. Louis, Mo.). Acetonitrile and water were obtained from VWR (Radnor, Pa.) and were of HPLC grade or better. Raloxifene and formic acid was purchased from Sigma Aldrich (St. Louis, Mo.). Lung S9 incubations were performed in a water bath at 37° C. in a 96-well polypropylene plate. […] All samples were centrifuged at 2250 g for 10 minutes at 5° C. Supernatant (50 μL) was taken from the centrifuged samples and diluted into 100 μL HPLC water containing internal standard. […] Mobile Phase A consisted of Water+0.2% formic acid and Mobile Phase B consisted of acetonitrile+0.2% formic acid. Peak integration was accomplished using Gubbs GMSU software (Gubbs Inc., Alpharetta, Ga.). For each sample, peak area ratios were calculated by dividing the analyte peak area by the internal standard peak area. […] Determination of sulfate metabolite formation was made qualitatively by observation of early-eluting peak in the parent ion channel which, based on historical internal data, corresponded to the O-sulfate metabolite of each parent compound.

[6] = Pharmacokinetics in plasma and lung in mouse; type: in vivo; settings: BALB/c mice, single oral aspiration, 0.2 mg/mL, 50 μL
Experimental: Assay 6: Pharmacokinetics in Plasma and Lung in Mouse
Plasma and lung concentrations of test compounds and ratios thereof were determined in the following manner. BALB/c mice from Charles River Laboratories were used in the assay. Test compounds were individually formulated in 20% propylene glycol in pH 4 citrate buffer at a concentration of 0.2 mg/mL and 50 μL of the dosing solution was introduced into the trachea of a mouse by oral aspiration. At various time points (typically 0.167, 2, 6, 24 hr) post dosing, blood samples were removed via cardiac puncture and intact lungs were excised from the mice.

[7] = test system: IFNγ stimulated STAT1 phosphorylation in CD14+ monocytes; assay: Cellular JAK potency assay: inhibition of IFNγ-induced pSTAT1; type: cell-based; settings: Homo sapiens, Monocyte, 0.5 h, read-out: pIC50, inhibition of IFNγ-induced pSTAT1 (converted)
Excerpt: Data are expressed as pIC50 (negative decadic logarithm IC50) values.

[8] = lung, read-out: Lung Concentration (ng/g) at 5 hr
[9] = plasma, read-out: Plasma Concentration (ng/mL) at 5 hr

Chain of JAK1 (P23458 whole entry): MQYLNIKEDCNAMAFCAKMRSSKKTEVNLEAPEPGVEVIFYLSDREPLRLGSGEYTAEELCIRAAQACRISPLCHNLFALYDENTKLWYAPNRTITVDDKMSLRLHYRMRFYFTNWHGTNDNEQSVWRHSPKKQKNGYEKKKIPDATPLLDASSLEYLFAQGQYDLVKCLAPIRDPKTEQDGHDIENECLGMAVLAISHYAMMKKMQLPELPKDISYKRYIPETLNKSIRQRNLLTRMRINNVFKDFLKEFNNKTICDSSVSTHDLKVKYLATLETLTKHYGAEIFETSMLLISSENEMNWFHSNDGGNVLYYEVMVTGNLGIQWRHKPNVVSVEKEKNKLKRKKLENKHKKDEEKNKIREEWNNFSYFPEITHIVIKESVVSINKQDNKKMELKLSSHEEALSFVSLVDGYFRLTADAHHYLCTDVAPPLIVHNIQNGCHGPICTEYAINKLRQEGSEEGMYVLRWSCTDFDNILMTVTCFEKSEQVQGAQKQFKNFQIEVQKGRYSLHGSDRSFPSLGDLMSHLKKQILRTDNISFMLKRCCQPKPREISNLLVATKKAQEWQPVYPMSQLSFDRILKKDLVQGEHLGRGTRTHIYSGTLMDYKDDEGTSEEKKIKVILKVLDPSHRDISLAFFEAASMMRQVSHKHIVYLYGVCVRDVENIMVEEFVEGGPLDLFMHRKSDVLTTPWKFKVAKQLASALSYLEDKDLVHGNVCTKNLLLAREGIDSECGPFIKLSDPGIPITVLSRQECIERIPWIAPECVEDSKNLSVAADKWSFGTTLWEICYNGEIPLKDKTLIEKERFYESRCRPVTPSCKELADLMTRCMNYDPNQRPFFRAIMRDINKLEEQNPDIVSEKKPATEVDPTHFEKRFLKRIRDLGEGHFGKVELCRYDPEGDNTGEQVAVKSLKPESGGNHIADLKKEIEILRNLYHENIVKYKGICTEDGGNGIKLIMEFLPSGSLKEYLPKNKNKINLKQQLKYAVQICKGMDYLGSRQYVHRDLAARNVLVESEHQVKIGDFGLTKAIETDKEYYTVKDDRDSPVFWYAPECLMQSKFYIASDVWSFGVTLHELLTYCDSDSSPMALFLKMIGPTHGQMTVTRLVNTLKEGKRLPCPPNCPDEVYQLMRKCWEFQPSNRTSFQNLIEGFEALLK

Structure (SMILES): CCCN1Cc2[nH]c(-c3n[nH]c4cc(-c5ccc(O)cc5CC)ccc34)nc2C[C@H]1C(=O)N1CCN(CCO)CC1 [Compound 1, (S)-(2-(6-(2-ethyl-4-hydroxyphenyl)-1H-indazol-3-yl)-5-propyl-4,5,6,7-tetrahydro-3H-imidazo[4,5-c]pyridin-6-yl)(4-(2-hydroxyethyl)piperazin-1-yl)methanone]
- JAK1 pKi ([1]; ATP at Km 25 μM, pIC50 converted with Cheng-Prusoff): 10.2
- Tyk2 pKi ([2]; ATP at Km 10 μM, pIC50 converted with Cheng-Prusoff): 9.0
- pSTAT6 inhibition at 5 hours [3]: 67%
- Kp at 5 h [4]: 1260
- concentration at 5 h [4, 8]: 13000 ± 5720 ng/g
- concentration at 5 h [4, 9]: 10.3 ± 3.9 ng/mL
- Compound Remaining at 60 min (%) [5]: 78%
- microsomal CLint at 1 µM [5]: 4.2 µL/min/mg
- Sulfate Appearance [5]: Yes
- Lung Tissue AUC(0-24) [6]: 64.6 µg·h/g
- Kp ([6]; mouse, lung / plasma, other: oral aspiration into the trachea, 10 µg/mouse, read-out: Lung Tissue:Plasma AUC ratio): 111
- AUC(0-t) ([6]; mouse, plasma, other: oral aspiration into the trachea, 10 µg/mouse, read-out: Plasma AUC(0-24)): 581 ng·h/mL
- IC50 ([7]; CD14+ monocytes, IFNγ 0.6 ng/mL, 30 min, flow cytometry): 31.6 nM

Structure (SMILES): CCc1cc(O)ccc1-c1ccc2c(-c3nc4c([nH]3)CN(C(C)C)[C@H](C(=O)N3CCCN(C)CC3)C4)n[nH]c2c1 [Compound 4, (S)-(2-(6-(2-ethyl-4-hydroxyphenyl)-1H-indazol-3-yl)-5-isopropyl-4,5,6,7-tetrahydro-3H-imidazo[4,5-c]pyridin-6-yl)(4-methyl-1,4-diazepan-1-yl)methanone]
- JAK1 pKi [1]: 10.1
- Tyk2 pKi [2]: 9.0
- pSTAT6 inhibition at 5 hours [3]: 67%
- Kp at 5 h [4]: 788
- concentration at 5 h [4, 8]: 17400 ± 6620 ng/g
- concentration at 5 h [4, 9]: 22 ± 23 ng/mL
- Compound Remaining at 60 min (%) [5]: 88%
- microsomal CLint at 1 µM [5]: 2.1 µL/min/mg
- Sulfate Appearance [5]: Yes
- IC50 [7]: 50.1 nM
